Values quoted from earlier work as cited in patent EP4781989A1, “POSACONAZOLE SOLID DISPERSION AND PREPARATION METHOD THEREFOR” (BEIJING DELIVERY PHARMACEUTICAL TECHNOLOGY CO., LTD, priority 2023, dated 2024).
Like-named read-outs stand apart in the source and are kept apart here.

- solubility (at about pH 6.4 or higher): less than 1 µg/mL
- solubility (gastric environment with about pH 1): about 0.8 mg/mL
SMILES: CC[C@@H]([C@H](C)O)n1ncn(-c2ccc(N3CCN(c4ccc(OC[C@@H]5CO[C@@](Cn6cncn6)(c6ccc(F)cc6F)C5)cc4)CC3)cc2)c1=O [Posaconazole]
